# Reference: patent US10111435B2, “Herbicidal compositions containing N-(1,3,4-oxadiazol-2-yl)-aryl carboxylic acid amides” (BAYER CROPSCIENCE AKTIENGESELLSCHAFT, priority 2013, dated 2018)
# Columns and labels:
# Assay type in all cases: in vivo
# [1] = test system: Avena fatua (AVEFA); experiment: greenhouse post-emergence herbicidal efficacy against AVEFA
# Method: (§1) All trials whose results are shown were conducted in a greenhouse by the methodology specified below. The effect of the inventive herbicidal compositions was examined on the following harmful plants 14 and 21 days after application:
# (§2) Echinochloa crus-galli (ECHCG), Eleusine indica (ELEIN), Setaria viridis (SETVI), Amaranthus retroflexus (AMARE), Chenopodium album (CHEAL), Kochia scoparia (KCHSC), Solanum nigrum (SOLNI), Avena fatua (AVEFA), Bromus sterilis (BROST), Lolium multiflorum (LOLMU), Phalaris minor (PHAMI), Poa annua (POAAN), Galium aparine (GALAP), Matricaria inodora (MATIN) and Polygonum convolvulus (POLCO).
# (§3) The harmful plant seeds were sown in pots (diameter 8 cm) with sandy loam soil and germinated under optimal conditions. The inventive herbicidal compositions or the active ingredients alone were applied post-emergence to the planted pots with a spray volume of 300 L/ha. The trial was conducted in a greenhouse under optimum growth conditions. The herbicidal effects were assessed visually by comparison of untreated and treated plants. The percentages mean: 0%=no effects, 100%=the plants die off completely).
# (§4) The abbreviations mean: • a.i.=active ingredient • E^C=expected value according to Colby (E^C=A+B−A×B/100) • Diff: =difference (%) of measured value from expected value (%) (measured value minus expected value)
# (§5) Assessment: • measured value E is greater than E^C:->synergism (+ diff.) • measured value E equals E^C:->additive effect • measured value E is smaller than E^C:->antagonism(− diff.)
# [2] = test system: Lolium multiflorum (LOLMU); experiment: greenhouse post-emergence herbicidal efficacy against LOLMU
# Method: as §1, §2, §3, §4, §5
# [3] = test system: Phalaris minor (PHAMI); experiment: greenhouse post-emergence herbicidal efficacy against PHAMI
# Method: as §1, §2, §3, §4, §5
# [4] = test system: Bromus sterilis (BROST); experiment: greenhouse post-emergence herbicidal efficacy against BROST
# Method: as §1, §2, §3, §4, §5
# [5] = test system: Matricaria inodora (MATIN); experiment: greenhouse post-emergence herbicidal efficacy against MATIN
# Method: as §1, §2, §3, §4, §5
# [6] = test system: Galium aparine (GALAP); experiment: greenhouse post-emergence herbicidal efficacy against GALAP
# Method: as §1, §2, §3, §4, §5
# [7] = test system: Poa annua (POAAN); experiment: greenhouse post-emergence herbicidal efficacy against POAAN
# Method: as §1, §2, §3, §4, §5
# [8] = test system: Polygonum convolvulus (POLCO); experiment: greenhouse post-emergence herbicidal efficacy against POLCO
# Method: as §1, §2, §3, §4, §5
# [9] = 21 days after application, g of a.i./ha: A1-13 2.5, indaziflam 40
# [10] = 21 days after application, g of a.i./ha: A1-13 10, indaziflam 40
# [11] = 21 days after application, g of a.i./ha: A1-13 10, indaziflam 10
# [12] = 14 days after application, g of a.i./ha: A1-13 10, indaziflam 40
# [13] = 14 days after application, g of a.i./ha: A1-13 2.5, indaziflam 10
# [14] = 14 days after application, 25 g of a.i./ha
# [15] = 14 days after application, 100 g of a.i./ha
# [16] = 21 days after application, g of a.i./ha: A1-14 2.5, pyrasulfotole 25
# [17] = 21 days after application, g of a.i./ha: A1-14 2.5, pyrasulfotole 100
# [18] = 21 days after application, g of a.i./ha: A1-14 10, pyrasulfotole 100
# [19] = 21 days after application, g of a.i./ha: A1-14 10, pyrasulfotole 25
# [20] = 14 days after application, g of a.i./ha: A1-7 2.5, saflufenacil 2
# [21] = 14 days after application, g of a.i./ha: A1-7 2.5, saflufenacil 8
# [22] = 21 days after application, g of a.i./ha: A1-7 10, saflufenacil 8
# [23] = 14 days after application, 80 g of a.i./ha
# [24] = 14 days after application, 320 g of a.i./ha
# [25] = 21 days after application, g of a.i./ha: A1-36 2.5, flurtamone 80
# [26] = 21 days after application, g of a.i./ha: A1-36 2.5, flurtamone 320
# [27] = 21 days after application, g of a.i./ha: A1-36 10, flurtamone 80
# [28] = 21 days after application, g of a.i./ha: A1-36 10, flurtamone 320
structure (smiles),measurement,setting,value
Cc1ccc2c(c1)[C@H](Nc1nc(N)nc(C(C)F)n1)[C@@H](C)C2 (stereo partly shown) [indaziflam],Efficacy,[1]; [9],10%
same,Efficacy,[1]; [10],10%
same,Efficacy,[2]; [11],0%
same,Efficacy,"[3]; 14 days after application, g of a.i./ha: A1-13 2.5, indaziflam 40",10%
same,Efficacy,[3]; [12],10%
same,Efficacy,[3]; [9],10%
same,Efficacy,[3]; [10],10%
same,Efficacy,[4]; [11],0%
same,Efficacy,[5]; [13],30%
same,Efficacy,"[5]; 14 days after application, g of a.i./ha: A1-13 10, indaziflam 10",30%
same,Efficacy,[6]; [13],50%
same,Efficacy,[6]; [12],60%
same,Efficacy against GALAP,"[6]; 21 days after application, dosage 40 g of a.i./ha",35%
same,Efficacy against POAAN,"[7]; 21 days after application, dosage 10 g of a.i./ha",0%
Cc1nn(C)c(O)c1C(=O)c1ccc(C(F)(F)F)cc1S(C)(=O)=O [pyrasulfotole],Efficacy,[2]; [14],0%
same,Efficacy,[2]; [15],0%
same,Efficacy,[3]; [14],0%
same,Efficacy,[3]; [15],5%
same,Efficacy,[3]; [16],0%
same,Efficacy,[3]; [17],0%
same,Efficacy,[4]; [14],0%
same,Efficacy,[4]; [18],0%
same,Efficacy,[5]; [14],0%
same,Efficacy,[5]; [15],15%
same,Efficacy,[5]; [17],3%
same,Efficacy,[6]; [16],40%
same,Efficacy,[6]; [19],40%
same,Efficacy,[7]; [14],0%
same,Efficacy,[7]; [15],0%
same,Efficacy,[7]; [16],0%
same,Efficacy,[7]; [17],0%
same,Efficacy,[8]; [14],50%
same,Efficacy,[8]; [15],60%
same,Efficacy,[8]; [16],0%
same,Efficacy,[8]; [17],30%
same,Efficacy,[8]; [19],0%
same,Efficacy,[8]; [18],30%
CC(C)N(C)S(=O)(=O)NC(=O)c1cc(-n2c(=O)cc(C(F)(F)F)n(C)c2=O)c(F)cc1Cl [saflufenacil],Efficacy,[1]; [20],0%
same,Efficacy,[2]; [20],0%
same,Efficacy,[2]; [21],10%
same,Efficacy,[4]; [22],5%
same,Efficacy,[8]; [20],0%
same,Efficacy,[8]; [21],10%
same,Efficacy,"[8]; 14 days after application, g of a.i./ha: A1-7 10, saflufenacil 2",0%
same,Efficacy,"[8]; 14 days after application, g of a.i./ha: A1-7 10, saflufenacil 8",10%
same,Efficacy,"[8]; 21 days after application, g of a.i./ha: A1-7 2.5, saflufenacil 2",0%
same,Efficacy,"[8]; 21 days after application, g of a.i./ha: A1-7 2.5, saflufenacil 8",0%
same,Efficacy,"[8]; 21 days after application, g of a.i./ha: A1-7 10, saflufenacil 2",0%
same,Efficacy,[8]; [22],0%
CNC1=C(c2cccc(C(F)(F)F)c2)C(=O)C(c2ccccc2)O1 (stereo not shown) [flurtamone],Efficacy,[1]; [23],0%
same,Efficacy,[1]; [24],15%
same,Efficacy,[1]; [25],0%
same,Efficacy,[1]; [26],0%
same,Efficacy,[1]; [27],0%
same,Efficacy,[1]; [28],0%
same,Efficacy,[2]; [23],30%
same,Efficacy,[2]; [27],20%
same,Efficacy,[3]; [23],40%
same,Efficacy,[3]; [24],50%
same,Efficacy,[3]; [27],40%
same,Efficacy,[4]; [23],0%
same,Efficacy,[4]; [24],10%
same,Efficacy,[4]; [25],0%
same,Efficacy,[4]; [26],10%
same,Efficacy,[5]; [23],50%
same,Efficacy,[5]; [24],50%
same,Efficacy,[5]; [25],25%
same,Efficacy,[5]; [26],30%
same,Efficacy,[5]; [27],25%
same,Efficacy,[5]; [28],30%
same,Efficacy,[6]; [23],40%
same,Efficacy,[6]; [24],80%
same,Efficacy,[6]; [25],0%
same,Efficacy,[6]; [27],0%
same,Efficacy,[6]; [28],70%
same,Efficacy,[8]; [23],50%
same,Efficacy,[8]; [24],30%
same,Efficacy,[8]; [27],0%
same,Efficacy,[8]; [28],30%
